US8685986B2, “Medical composition for treatment or prophylaxis of glaucoma” (Ube Industries, Ltd., priority 2009, dated 2014)
Where a name gives a salt, the structure may show the parent alone. Read-outs that look alike come from different tables or passages of the source.

Experiments:
[1] = target: T1, human EP2 receptor (Homo sapiens (Human), UniProt P43116); assay: Measurement of EP2 receptor binding affinity ([3H]PGE2 displacement, membrane fraction of HEK293 cells)
Description: Measurement of EP2 receptor binding affinity was carried out according to the method of Abramovitz et al. (Biochimica et Biophysica Acta, 1483, 285 (2000)). […] The membrane fraction was recovered on glass fiber filter paper (GF/B, available from Whatman PLC) using a cell harvester (M30R, available from Brandel Inc.), and after washing with a buffer solution (10 mM MES-KOH (pH 6.0), 10 mM MgCl2), radioactivity was measured with a liquid scintillation analyzer (2000CA, available from Packard). […] The dissociation constant (Kd value) was calculated by Scatchard analysis.

[2] = target: T1, human EP2 receptor; assay: Measurement of EP2 agonist activity (cAMP amount in HEK 293 cells); assay type: cell-based; details: cAMP increase in HEK 293 cells expressing human EP2 receptor, 30 minutes
Description: Measurement of EP2 agonist activity was carried out according to the method of Wilson et al. (European Journal of Pharmacology, 501, 49 (2004)). HEK 293 cells (ES-562-C, available from Euroscreen S.A.) expressed human EP2 receptor were cultured in a MEM medium containing 10% FBS and seeded at 2×10^4 cells per each well of a 96-well plate. On the next day, the medium was replaced with serum-free MEM medium containing 3-isobutyl-1-methylxanthine (final concentration: 500 μM) and after culturing for 30 minutes, a test compound dissolved in dimethylsulfoxide was added followed by allowing to stand undisturbed in a carbon dioxide gas incubator. After 30 minutes, an amount of cAMP in the cells was measured with a cAMP Biotrak EIA System kit (available from GE Healthcare Bioscience).

[3] = target: human EP3 receptor (Homo sapiens (Human), UniProt P43115); assay: Measurement of EP3 receptor binding affinity ([3H]PGE2 displacement, membrane fraction of Chem-1 cells)
Description: (§1) With regard to EP3 and EP4 receptors, measurements of receptor binding affinity were carried out according to the following methods in the same manner as in Test example 1.
(§2) The membrane fraction was recovered on glass fiber filter paper (GF/B, available from Whatman PLC) pretreated with 0.3% polyethyleneimine by using a cell harvester (M30R, available from Brandel Inc.), and after washing with a buffer solution (50 mM Tris-HCl (pH 7.4)), radioactivity was measured with a liquid scintillation analyzer (2000CA, available from Packard). […] The dissociation constant (Kd value) was calculated by Scatchard analysis.

[4] = target: human EP4 receptor (Homo sapiens (Human), UniProt P35408); assay: Measurement of EP4 receptor binding affinity ([3H]PGE2 displacement, membrane fraction of Chem-1 cells)
Description: as §1
as §2, with “HEPES-NaOH” for “Tris-HCl”, “7.4), 500 mM NaCl, 0.1% BSA),” for “7.4)),”

T1 sequence (P43116 whole entry): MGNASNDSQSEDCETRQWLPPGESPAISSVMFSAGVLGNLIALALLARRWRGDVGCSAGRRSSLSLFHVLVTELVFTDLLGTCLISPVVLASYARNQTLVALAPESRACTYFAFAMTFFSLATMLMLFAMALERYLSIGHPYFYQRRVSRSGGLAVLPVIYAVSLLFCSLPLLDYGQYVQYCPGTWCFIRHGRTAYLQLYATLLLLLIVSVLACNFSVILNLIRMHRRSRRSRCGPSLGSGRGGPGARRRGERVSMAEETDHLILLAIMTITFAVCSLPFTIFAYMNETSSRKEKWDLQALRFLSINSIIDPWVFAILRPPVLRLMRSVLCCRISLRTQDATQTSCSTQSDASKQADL
Sequence of human EP4 receptor (P35408 whole entry): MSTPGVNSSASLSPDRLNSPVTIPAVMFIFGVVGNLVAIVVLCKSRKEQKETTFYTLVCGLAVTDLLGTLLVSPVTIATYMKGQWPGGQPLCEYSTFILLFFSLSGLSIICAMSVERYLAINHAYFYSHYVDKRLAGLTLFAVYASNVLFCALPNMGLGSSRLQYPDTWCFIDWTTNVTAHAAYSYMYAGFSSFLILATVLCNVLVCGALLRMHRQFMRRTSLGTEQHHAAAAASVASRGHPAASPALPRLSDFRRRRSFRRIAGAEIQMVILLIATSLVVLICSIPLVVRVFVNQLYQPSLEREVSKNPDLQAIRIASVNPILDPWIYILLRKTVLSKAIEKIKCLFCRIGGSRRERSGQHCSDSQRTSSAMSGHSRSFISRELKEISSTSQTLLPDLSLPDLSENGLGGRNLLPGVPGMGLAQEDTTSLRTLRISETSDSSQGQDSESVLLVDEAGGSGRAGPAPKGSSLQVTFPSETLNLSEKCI
Sequence of human EP3 receptor (P43115 whole entry): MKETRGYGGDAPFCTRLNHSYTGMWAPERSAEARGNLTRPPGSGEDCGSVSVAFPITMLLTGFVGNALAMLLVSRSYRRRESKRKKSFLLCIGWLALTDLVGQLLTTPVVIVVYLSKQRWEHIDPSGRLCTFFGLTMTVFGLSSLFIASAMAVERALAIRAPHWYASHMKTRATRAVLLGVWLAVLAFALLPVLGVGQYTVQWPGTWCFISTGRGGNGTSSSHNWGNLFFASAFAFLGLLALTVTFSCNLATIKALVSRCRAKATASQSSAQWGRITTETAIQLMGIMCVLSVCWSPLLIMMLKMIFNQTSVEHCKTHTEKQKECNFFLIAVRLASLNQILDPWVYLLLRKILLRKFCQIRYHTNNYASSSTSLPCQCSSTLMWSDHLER

Ki ([1]; PGE2 receptor selectivity, Table 4, read-out: EP2 receptor binding affinity Ki value) [nM] | Ki ([1]; [3H]PGE2 10 nM, HEK293 membrane fraction, Table 2, read-out: Ki value of EP2 receptor binding affinity) [nM] | EC50 [2] [nM] | Ki ([3]; [3H]PGE2 2 nM, Chem-1 membrane fraction, Table 4) [nM] | Ki ([4]; [3H]PGE2 1 nM, Chem-1 membrane fraction, Table 4) [nM] | Ki [3] [nM] | Ki [4] [nM] | Ki ([1]; read-out: Ki value of EP2 receptor binding affinity) [nM] | Compound
1.9 | 1.9 | 0.45 | > 10000 | 4800 | – | – | – | O=C(O)CNc1cccc(CN(Cc2ccc(-c3nccs3)cc2)S(=O)(=O)c2ccccn2)n1 [Example 3]
– | – | – | – | – | > 10000 | 2800 | – | O=C(O)CNc1cccc(CN(Cc2ccc(-c3nccs3)cc2)S(=O)(=O)c2cccnc2)n1 [Example 11, (6-{(Pyridin-3-ylsulfonyl)[4-(thiazol-2-yl)benzyl]aminomethyl}pyridin-2-ylamino)acetic Acid Trifluoroacetate]
– | – | 0.29 | – | – | > 10000 | 2900 | 2.8 | O=C(O)CNc1cccc(CN(Cc2ccc(-c3nccs3)cc2)S(=O)(=O)c2ccc(F)cc2)n1 [Example 4, (6-{(4-Fluorobenzenesulfonyl)[4-(thiazol-2-yl)benzyl]aminomethyl}pyridin-2-ylamino)acetic Acid]
